Laboratory results taken from US9745337B2, “Complex compounds of germanium, methods for producing same, and drugs” (priority 2012, dated 2017).
Converted amounts (≈) assume the structure as drawn. Like-named read-outs stand apart in the source and are kept apart here.

Columns and labels:
[1] = test system: HSV-1; details: combination of D609 and acyclovir; cited from earlier work
[2] = test system: herpes simplex virus (HSV-1); details: cited from earlier work
[3] = test system: Varicella-Zoster virus; details: S-acetyl glutathione 0.35 mg/mL with three acyclovir concentrations, strongest at 0.9 mcg/mL acyclovir; cited from earlier work
[4] = in the presence of low, inefficient concentrations of xanthogenate; cited from earlier work
[5] = in vivo; cited from earlier work
[6] = physchem
Description: (§1) For this purpose, we studied the solubilities of these compounds at various pH values that correspond to the gastrointestinal fluids (for the intestinal fluid: pH is 1.2; for the duodenal fluid: pH 4.4; and for the small intestine fluid: pH 6.8).
(§2) One biopharmaceutical solubility value which allows describing a therapeutic drug (TD) as a compound having “high” or “low” solubility, is the dose/solubility ratio (D/S). The dose/solubility ratio is determined as follows: maximal dose (D) (mg)/water solubility (S) (mg/mL).
(§3) Importantly, biopharmaceutical solubility is not a constant value for a given therapeutic drug (TD); rather, it depends on the maximal registered dosage of an immediate-release TD intended for systemic effects.
(§4) One more biopharmaceutical value is the solubility in biorelevant media. These are dissolution media such that approach the human body fluids (intestinal fluid and gastric fluid) as closely as possible in terms of chemical composition and in terms of physicochemical properties (pH, osmomolality, buffer capacity, and surface tension). The simulation of physiological conditions is provided by introducing surfactants (lecithin and sodium taurocholate) into these media. There are two major types of biorelevant media, namely: an artificial intestinal fluid in an empty stomach (fasted state simulated intestinal fluid (FaSSIF)) and after eating (fed state simulated intestinal fluid (FeSSIF)).

[7] = cited from earlier work
[8] = test system: HSV-1; details: Vero cells, cited from earlier work
[9] = test system: HSV-2; details: Vero cells, cited from earlier work
[10] = biopharmaceutical and biorelevant solubility (pH media, FaSSIF, FeSSIF)
Description: as §1, §2, §3, §4

[11] = octanol-water partition coefficient log P; assay type: physicochemical; details: n-octanol and water
Description: A criterion that can serve as a measure of the absorption of the solute through the wall of the small intestine is permeability, i.e., the fraction of the substance permeating through the intestinal wall. The physicochemical property of a molecule that makes the greatest contribution to permeability is liphophilicity. A measure of lipophilicity to be used in indirect assessment of intestinal permeability is the octanol-water partition coefficient, log P, which is the logarithm of the ratio of concentrations of an unionized substance in the system of two immiscible liquids (n-octanol and water). […]

[12] = test system: herpes simplex viruses type 1 (HSV-1); details: cited from earlier work
[13] = reference for high intestinal permeability; cited from earlier work
[14] = test system: HSV-1 “L2/R” virus; assay type: cell-based, herpes simplex virus type I; details: concentrations of 500 mcg/mL and 250 mcg/mL, VERO
Description: The criteria used to evaluate the antiviral activity were: the ability to prevent the development of a virus-induced cytopathic effect and the ability to inhibit reproduction of the virus in the cell culture. Test samples were inserted into the nutrient medium 1 hour after the culture was infected with a certain dose of the virus (the therapeutic scheme). The antiviral activity of the samples and virus-induced cytopathic effects in the cell culture were monitored every day using light microscopy as the degree of morphological alteration of a cell monolayer. The endpoint was on the 4th day of contact of the cells with the infectious material, after a well-defined (100%) cytopathic effect appeared in control samples (positive control). The presence of antiviral activity in samples of organogermanium compounds according to the invention was ascertained as the difference between the viral titers measured in the experiment and in the control.

Compound: S=C(S)OC1CC2CC1C1CCCC21 (centres unmarked) [D609, tricyclodecan-9-yl-xanthogenate]
- survival of animals infected with HSV-1 [1]: survival of all animals

Compound: CC(=O)SC[C@H](NC(=O)CC[C@H](N)C(=O)O)C(=O)NCC(=O)O [S-acetyl glutathione]
- effect of combination with acyclovir against HSV-1 ([2]; S-acetyl glutathione combined with acyclovir): strong synergistic effect
- concentration from which efficient against HSV-1 [2]: ≥ 0.35 mg/mL
- effect of compositions with acyclovir against Varicella-Zoster virus [3]: noticeable synergistic effect

Compound: Nc1nc2c(ncn2COCCO)c(=O)[nH]1 [acyclovir, 9-[(2-hydroxyethoxy)methyl] guanine]
- increase of acyclovir activity in a cell culture [4]: fivefold
- bioavailability [5]: 15-20%
- solubility ([6]; FaSSIF (fasted state simulated intestinal fluid), fassif): 1440 µg/mL (≈ 6.39 mM)
- solubility ([6]; FeSSIF (fed state simulated intestinal fluid), fessif): 1380 µg/mL (≈ 6.13 mM)
- solubility ([6]; aqueous dissolution medium at pH 1.2, pH 1.2, simulated gastric fluid): 3500 µg/mL (≈ 15.5 mM)
- solubility ([6]; aqueous dissolution medium at pH 4.5, pH 4.4, aqueous buffer): 2600 µg/mL (≈ 11.5 mM)
- solubility in hydrophobic systems [7]: almost insoluble
- effect of combination against HSV-1 ([8]; acyclovir 0.04-0.4 mcg/mL with carbocyclic oxetanocin G 0.01-0.2 mcg/mL): synergistic effect
- effect of combination against HSV-1 ([8]; acyclovir 0.04-0.4 mcg/mL with oxetanocin G 0.4-5.4 mcg/mL): synergistic effect
- effect of combination against HSV-2 ([9]; acyclovir 0.1-3.4 mcg/mL with carbocyclic oxetanocin G 0.04-0.54 mcg/mL): synergistic effect
- effect of combination against HSV-2 ([9]; acyclovir 0.1-3.4 mcg/mL with oxetanocin G 0.4-4 mcg/mL): synergistic effect
- Solubility (“high”/“low”) ([10]; FaSSIF): “low”
- Solubility (“high”/“low”) ([10]; FeSSIF): “low”
- Solubility (“high”/“low”) ([10]; pH 1.2): “high” (When D/S≦250 mL, the TD has “high” solubility in the relevant aqueous solution)
- Solubility (“high”/“low”) ([10]; pH 4.4-4.5 (4.4 for the tested compounds, 4.5 for acyclovir)): low and “low”
- Solubility (“high”/“low”) ([10]; pH 6.8): low and “low”
- solubility ([10]; pH 6.8): 2400 µg/mL (≈ 10.7 mM)
- logP [11]: -1.57
- concentration for 50% inhibition of the virus-induced cytopathic effect ([12]; acyclovir used alone): 0.4 µg/mL
- acyclovir concentration for 50% inhibition of the virus-induced cytopathic effect ([12]; combined with bis-netropsin 0.15 mcg/mL): 0.15 µg/mL
- acyclovir concentration for 50% inhibition of the virus-induced cytopathic effect ([12]; combined with netropsin 2.5 mcg/mL): 0.075 µg/mL

Compound: Nc1nc2c(ncn2COC(CO)CO)c(=O)[nH]1 [gancyclovir, 9-[(1,3-dihydroxy-2-propoxy)methyl]guanine]
- bioavailability [5]: 5%
- reduction in gancyclovir concentration ([12]; combination with netropsin and bis-netropsin): fivefold

Compound: COCCc1ccc(OCC(O)CNC(C)C)cc1 (centres unmarked) [metoprolol]
- log P of reference substance [13]: 1.72

Compound: Nc1nc2c(ncn2CCC(CO)CO)c(=O)[nH]1 [pencyclovir, 9-[4-hydroxy-3-(hydroxymethyl)butyl]guanine]
- bioavailability [5]: 1.5%
- water solubility ([7]; at 20° C.): 1740 µg/mL (≈ 6.87 mM)

Compound: CC(C)[C@H](N)C(=O)OCCOCn1cnc2c(=O)[nH]c(N)nc21 [valacyclovir, 2-(guanin-9-ylmethoxy)ethyl L-valine ether]
- reduction of the infectious activity of the HSV-1 “L2/R” virus [14]: 1.5 log

Compound: Nc1ncnc2c1ncn2[C@@H]1O[C@H](CO)[C@@H](O)[C@@H]1O [vidarabine, 9-β-D-arabinofuranosyl adenine]
- water solubility (in words) [7]: poorly soluble
